In ChEMBL document CHEMBL2202954, “The effect of PLC-γ2 inhibitors on the growth of human tumour cells” (2012):

Tests used:
Assay type in all cases: functional
MDA-MB-468 = assay: Cytotoxicity against human MDA-MB-468 cells assessed as cellular growth at 10 uM by SRB assay
HOP-62 = assay: Cytotoxicity against human HOP62 cells assessed as cellular growth at 10 uM by SRB assay
786-0 = assay: Cytotoxicity against human 786-0 cells assessed as cellular growth at 10 uM by SRB assay
RXF 393 = assay: Cytotoxicity against human RXF393 cells assessed as cellular growth at 10 uM by SRB assay
NCI-H522 = assay: Cytotoxicity against human NCI-H522 cells assessed as cellular growth at 10 uM by SRB assay
KM12 = assay: Cytotoxicity against human KM12 cells assessed as cellular growth at 10 uM by SRB assay
HT-29 = assay: Cytotoxicity against human HT-29 cells assessed as cellular growth at 10 uM by SRB assay
CAKI-1 = assay: Cytotoxicity against human Caki1 cells assessed as cellular growth at 10 uM by SRB assay
NCI-H23 = assay: Cytotoxicity against human NCI-H23 cells assessed as cellular growth at 10 uM by SRB assay
TK-10 = assay: Cytotoxicity against human TK10 cells assessed as cellular growth at 10 uM by SRB assay
[1] = Cytotoxicity against human NCI-ADR-RES cells assessed as cellular growth at 10 uM by SRB assay
NCI-H322M = assay: Cytotoxicity against human NCI-H322M cells assessed as cellular growth at 10 uM by SRB assay
PC-3 = assay: Cytotoxicity against human PC3 cells assessed as cellular growth at 10 uM by SRB assay
UACC-62 = assay: Cytotoxicity against human UACC62 cells assessed as cellular growth at 10 uM by SRB assay
SF-268 = assay: Cytotoxicity against human SF268 cells assessed as cellular growth at 10 uM by SRB assay
HCC 2998 = assay: Cytotoxicity against human HCC2998 cells assessed as cellular growth at 10 uM by SRB assay
MOLT-4 = assay: Cytotoxicity against human MOLT4 cells assessed as cellular growth at 10 uM by SRB assay
HCT-15 = assay: Cytotoxicity against human HCT15 cells assessed as cellular growth at 10 uM by SRB assay
SNB-19 = assay: Cytotoxicity against human SNB19 cells assessed as cellular growth at 10 uM by SRB assay
Hs-578T = assay: Cytotoxicity against human Hs578T cells assessed as cellular growth at 10 uM by SRB assay

SMILES | Activity (MDA-MB-468) | Activity (HOP-62) | Activity (786-0) | Activity (RXF 393) | Activity (NCI-H522) | Activity (KM12) | Activity (HT-29) | Activity (CAKI-1) | Activity (NCI-H23) | Activity (TK-10) | Activity [1] | Activity (NCI-H322M) | Activity (PC-3) | Activity (UACC-62) | Activity (SF-268) | Activity (HCC 2998) | Activity (MOLT-4) | Activity (HCT-15) | Activity (SNB-19) | Activity (Hs-578T)
N#Cc1ccc(-n2nnc3ccccc32)cc1C#N | 99.52% | 94.62% | 99.49% | 100.39% | 88.08% | 96.37% | 108.03% | 85.44% | 94% | 133.56% | 100.66% | 111.4% | 100.51% | 94.5% | 105% | 103.78% | 93.32% | 99.78% | 112.27% | 105.04%
Nc1c(C(=O)Nc2ccccc2)sc2nc3c(cc12)C(=O)CCC3 | 4.62% | 39.88% | 36.19% | -9.9% | -33.85% | 19.9% | 4.34% | 54.68% | 39.48% | 63.62% | -6.39% | 67.12% | 21.62% | 44.06% | 53.38% | 21.89% | 43.43% | 27.18% | 36.05% | 37.53%
Cc1cc(C)c(NC(=O)c2sc3nc4c(cc3c2N)C(=O)CCC4)c(C)c1 | -27.16% | 36.92% | 30.39% | -6.65% | -14.71% | 27.28% | 0.48% | -22.19% | 33.04% | 44.75% | -8.04% | 56.34% | 23.46% | 23.22% | 38.6% | 30.95% | 43.03% | 31.78% | 40.22% | 17.68%
Cc1ccccc1NC(=O)c1sc2nc3c(cc2c1N)C(=O)CCC3 | -4.56% | 38.2% | 51.56% | -10.38% | 12.53% | 19.22% | 21.08% | 55.35% | 50.58% | 81.15% | 22.58% | 71.39% | 30.33% | 36.9% | 65.36% | 67% | 67.51% | 32.76% | 46.1% | 25.78%
Cc1ccc(Cl)cc1NC(=O)c1sc2nc3c(cc2c1N)C(=O)CCC3 | 8.44% | 60.95% | 89.229% | 42.15% | 22.92% | 37.01% | 28.78% | 41.45% | 63.04% | 96.55% | 43.81% | 95.72% | 55.81% | 53.09% | 74.86% | 74.86% | 84.85% | 45.91% | 68.14% | 60.85%
Cc1ccc(S(=O)(=O)NC2=NC(=O)/C(=C\c3ccccc3)S2)cc1 | 110.23% | 100.56% | 107.82% | 118.7% | 85.18% | 115% | 109.22% | 102.92% | 107.93% | 104.1% | 108.06% | 114.86% | 111.74% | 96.39% | 99.46% | 106.96% | 86.66% | 104.84% | 108.61% | 128.48%
Nc1c(C(=O)Nc2cccc(Cl)c2)sc2nc3c(cc12)C(=O)CCC3 | -10.56% | 47.04% | 47.72% | 25.93% | 14.59% | 21.64% | 23.87% | 40.31% | 38% | 64.95% | 17.69% | 71.82% | 29.1% | 43.7% | 63.09% | 8.27% | 57.06% | 32.41% | 38.19% | 4.53%
O=C(Nc1ccc(S(=O)(=O)Nc2nccs2)cc1)c1cccs1 | 102.57% | 114.96% | 104.56% | 110.47% | 93.79% | 114.86% | 101.43% | 99.02% | 108.72% | 104.94% | 120.26% | 104.64% | 113.66% | 104.61% | 114.27% | 108.36% | 95.09% | 104.67% | 106.66% | 122.2%
Nc1c(C(=O)Nc2ccccc2F)sc2nc3c(cc12)C(=O)CCC3 | -15.24% | 42.7% | 41.5% | 9.63% | -15.17% | 24.63% | 12.19% | 4.36% | 42.84% | 59.66% | -4.39% | 68.76% | 23.38% | 23.7% | 54.87% | 43.8% | 73.64% | 40.21% | 41.11% | 37.25%
